The values below come from patent US8309552B2, “Immunomodulating heterocyclic compounds” (Medigene AG, priority 2003, dated 2012).

The target in one assay is T1, CD80-CD28 interaction (Homo sapiens, UniProt P33681).
T1 sequence (P33681 35-242 limits assumed): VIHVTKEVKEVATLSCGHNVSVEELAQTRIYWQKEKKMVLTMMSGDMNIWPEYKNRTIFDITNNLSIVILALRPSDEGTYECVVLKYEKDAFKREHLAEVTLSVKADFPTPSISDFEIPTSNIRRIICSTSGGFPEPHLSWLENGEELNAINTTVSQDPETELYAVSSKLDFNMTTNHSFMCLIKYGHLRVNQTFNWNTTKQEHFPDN
The assay can be described thus: Homogenous Time Resolved Fluorescence (HTRF) assay, cell free. The format is binding. The conditions noted are these: cell free HTRF assay; concentration series 100 μM-1.7 nM; 4 hours at room temperature; read-out: Activity (EC50 in the HTRF assay). The method in brief: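 In pH7.8 Tris-HCl/NaCl buffer with 0.1% BSA, a 100 μM-1.7 nM compound series was incubated for 4 h at room temperature with CD28 and CD80 fusions carrying europium and APC via linker antibodies. Time-resolved signals at 665 and 615 nm were read after 340 nm excitation; a C215 Fab swap defined background. EC50 given as banded classes.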
For orientation: In TR-FRET formats the signal depends on donor and acceptor labels being close together.
`C=CCN(C)CCCCNC(=O)c1ccc(-n2[nH]c3c(nnc4c(F)cccc43)c2=O)cc1` [Example 435]: the EC50 (commonly the midpoint of the concentration-response curve) is under 1000 nM.

`CN(CCCCNC(=O)c1ccc(-n2[nH]c3c(nnc4c(F)cccc43)c2=O)cc1)C1CCCCC1` [Example 436]: the EC50 was under 1000 nM.

The same assay, now with this note: cell-free HTRF, concentration series 100 μM-1.7 nM, 4 hours at room temperature; read-out: Activity (EC50 in the HTRF assay).
Take `O=C(NCCCCF)c1ccc(-n2[nH]c3c(nnc4c(F)cccc43)c2=O)cc1` [Example 437]: the EC50 is under 1000 nM.

Take `CN(CCCNC(=O)c1ccc(-n2[nH]c3c(nnc4c(F)cccc43)c2=O)cc1)c1ccccc1` [Example 438]: the concentration for a half-maximal effect (EC50) is 1000 to 10000 nM.

Turning to `CC1CC(C)(C)C(CNC(=O)c2ccc(-n3[nH]c4c(nnc5c(F)cccc54)c3=O)cc2)C1N` (centres unmarked) [Example 439], the concentration for a half-maximal effect (EC50) is under 1000 nM.

In the case of `O=C(NC1CCNCC1)c1ccc(-n2[nH]c3c(nnc4c(F)cccc43)c2=O)cc1` [Example 440], the EC50 is under 1000 nM.

In the case of `CC(N)C(C)CNC(=O)c1ccc(-n2[nH]c3c(nnc4c(F)cccc43)c2=O)cc1` (centres unmarked) [Example 443], the EC50 was under 1000 nM.

For the compound `O=C(NCC1CCNCC1)c1ccc(-n2[nH]c3c(nnc4c(F)cccc43)c2=O)cc1` [Example 444], the EC50 was under 1000 nM.

Turning to `NCCCNC(=O)c1ccc(-n2[nH]c3c(nnc4c(F)cccc43)c2=O)cc1` [Example 445], the EC50 was under 1000 nM.

Regarding `CN(C)CCCNC(=O)c1ccc(-n2[nH]c3c(nnc4ccc(Cl)cc43)c2=O)cc1` [Example 446], the EC50 was under 1000 nM.

Consider `CN1C(C)(C)CC(NC(=O)c2ccc(-n3[nH]c4c(nnc5ccc(Cl)cc54)c3=O)cc2)CC1(C)C` [Example 447], for which the EC50 was under 1000 nM.

`O=C(NCCCCN1CCCC1)c1ccc(-n2[nH]c3c(nnc4ccc(Cl)cc43)c2=O)cc1` [Example 449]: the EC50 was under 1000 nM.

As to `CCNC(=O)c1ccc(-n2[nH]c3c(nnc4c(F)cccc43)c2=O)cc1` [Example 450], the EC50 was under 1000 nM.

Regarding `O=C(NCCCN1CCCCCC1)c1ccc(-n2[nH]c3c(nnc4c(F)cccc43)c2=O)cc1` [Example 451], the 50% effective concentration (EC50) is under 1000 nM.

`CCCN(CC)C(=O)c1ccc(-n2[nH]c3c(nnc4c(F)cccc43)c2=O)cc1` [Example 452]: the EC50 lay within 1000 to 10000 nM.

As for `CC1CCCCN1CCCCNC(=O)c1ccc(-n2[nH]c3c(nnc4c(F)cccc43)c2=O)cc1` (centres unmarked) [Example 454], the EC50 is under 1000 nM.

Consider `CC(C)(C)CNC(=O)c1ccc(-n2[nH]c3c(nnc4c(F)cccc43)c2=O)cc1` [Example 455], for which the EC50 was under 1000 nM.

For the compound `O=C(NC1CCN(CC2CCCCC2)CC1)c1ccc(-n2[nH]c3c(nnc4c(F)cccc43)c2=O)cc1` [Example 456], the EC50 was under 1000 nM.

As for `O=C(NC1CCN(CCCCc2ccccc2)CC1)c1ccc(-n2[nH]c3c(nnc4c(F)cccc43)c2=O)cc1` [Example 457], the EC50 was under 1000 nM.

Take `C=CCN(CC=C)CCCCNC(=O)c1ccc(-n2[nH]c3c(nnc4c(F)cccc43)c2=O)cc1` [Example 459]: the EC50 was under 1000 nM.

Consider `CC1CN(CCCCNC(=O)c2ccc(-n3[nH]c4c(nnc5c(F)cccc54)c3=O)cc2)CC(C)O1` (centres unmarked) [Example 460], for which the 50% effective concentration (EC50) was under 1000 nM.

Turning to `CC1CN(C(=O)c2ccc(-n3[nH]c4c(nnc5c(F)cccc54)c3=O)cc2)CC(C)O1` (centres unmarked) [Example 461], the EC50 is under 1000 nM.

Turning to `O=C(NCCCCN1CCCCCC1)c1ccc(-n2[nH]c3c(nnc4c(F)cccc43)c2=O)cc1` [Example 462], the 50% effective concentration (EC50) was under 1000 nM.

For `O=C(c1ccc(-n2[nH]c3c(nnc4c(F)cccc43)c2=O)cc1)N1CCCCCC1` [Example 463], the EC50 is under 1000 nM.

With `CC1CCN(CCCCNC(=O)c2ccc(-n3[nH]c4c(nnc5c(F)cccc54)c3=O)cc2)CC1` [Example 464], the EC50 was under 1000 nM.

Take `CC1CCN(C(=O)c2ccc(-n3[nH]c4c(nnc5c(F)cccc54)c3=O)cc2)CC1` [Example 465]: the half-maximal effective concentration (EC50) was under 1000 nM.

Consider `CC1(C)CCCC(C)(C)N1CCCCNC(=O)c1ccc(-n2[nH]c3c(nnc4c(F)cccc43)c2=O)cc1` [Example 466], for which the EC50 was under 1000 nM.

Take `O=C(NCC(F)(F)C(F)F)c1ccc(-n2[nH]c3c(nnc4c(F)cccc43)c2=O)cc1` [Example 467]: the concentration for a half-maximal effect (EC50) is under 1000 nM.

As for `CCCN(CCCCNC(=O)c1ccc(-n2[nH]c3c(nnc4c(F)cccc43)c2=O)cc1)CC1CC1` [Example 468], the EC50 was under 1000 nM.

With `C=CCN(CCCCNC(=O)c1ccc(-n2[nH]c3c(nnc4c(F)cccc43)c2=O)cc1)C1CCCC1` [Example 469], the EC50 is under 1000 nM.

`O=C(NCCCCN1CCC(C(F)(F)F)CC1)c1ccc(-n2[nH]c3c(nnc4c(F)cccc43)c2=O)cc1` [Example 470]: the half-maximal effective concentration (EC50) is under 1000 nM.

Regarding `O=C(NC1CCN(CCCCF)CC1)c1ccc(-n2[nH]c3c(nnc4c(F)cccc43)c2=O)cc1` [Example 471], the half-maximal effective concentration (EC50) is under 1000 nM.

Regarding `C=CCN(CC=C)C(=O)c1ccc(-n2[nH]c3c(nnc4c(F)cccc43)c2=O)cc1` [Example 474], the EC50 lay within 1000 to 10000 nM.

Take `CC(C)CN(CCCCNC(=O)c1ccc(-n2[nH]c3c(nnc4c(F)cccc43)c2=O)cc1)CC(C)C` [Example 476]: the EC50 was under 1000 nM.

Consider `CC1CC(C)CN(CCCCNC(=O)c2ccc(-n3[nH]c4c(nnc5c(F)cccc54)c3=O)cc2)C1` (centres unmarked) [Example 477], for which the EC50 is under 1000 nM.

Consider `CC(C)(C)NCCCCNC(=O)c1ccc(-n2[nH]c3c(nnc4c(F)cccc43)c2=O)cc1` [Example 479], for which the EC50 is under 1000 nM.

Turning to `CCC(C)(C)NCCCCNC(=O)c1ccc(-n2[nH]c3c(nnc4c(F)cccc43)c2=O)cc1` [Example 480], the EC50 is under 1000 nM.

In the case of `CC(C)(C)CNCCCCNC(=O)c1ccc(-n2[nH]c3c(nnc4c(F)cccc43)c2=O)cc1` [Example 481], the 50% effective concentration (EC50) was under 1000 nM.

`C=CCCN1CCC(NC(=O)c2ccc(-n3[nH]c4c(nnc5c(F)cccc54)c3=O)cc2)CC1` [Example 483]: the EC50 is under 1000 nM.

Turning to `O=C(NC1CCN(CCC(F)=C(F)F)CC1)c1ccc(-n2[nH]c3c(nnc4c(F)cccc43)c2=O)cc1` [Example 484], the EC50 was under 1000 nM.

As for `O=C(NCCCC(F)F)c1ccc(-n2[nH]c3c(nnc4c(F)cccc43)c2=O)cc1` [Example 485], the concentration giving a half-maximal response (EC50) is under 1000 nM.

As for `N#CCCNC(=O)c1ccc(-n2[nH]c3c(nnc4c(F)cccc43)c2=O)cc1` [Example 486], the half-maximal effective concentration (EC50) was under 1000 nM.

As to `O=C(NC(CO)(CO)CO)c1ccc(-n2[nH]c3c(nnc4c(F)cccc43)c2=O)cc1` [Example 487], the EC50 is under 1000 nM.

With `O=C(NC1CCNC1)c1ccc(-n2[nH]c3c(nnc4c(F)cccc43)c2=O)cc1` (centres unmarked) [Example 488], the half-maximal effective concentration (EC50) was under 1000 nM.

As for `CN1CCCN(C(=O)c2ccc(-n3[nH]c4c(nnc5c(F)cccc54)c3=O)cc2)CC1` [Example 489], the 50% effective concentration (EC50) is under 1000 nM.

Turning to `O=C(c1ccc(-n2[nH]c3c(nnc4c(F)cccc43)c2=O)cc1)N1CCCNCC1` [Example 490], the EC50 is under 1000 nM.

In the case of `NC(=O)CNC(=O)c1ccc(-n2[nH]c3c(nnc4c(F)cccc43)c2=O)cc1` [Example 491], the EC50 is under 1000 nM.

As to `O=C(NC1CCC(=C(F)F)CC1)c1ccc(-n2[nH]c3c(nnc4c(F)cccc43)c2=O)cc1` (centres unmarked) [Example 492], the concentration for a half-maximal effect (EC50) was under 1000 nM.

For the compound `CC(F)CCNC(=O)c1ccc(-n2[nH]c3c(nnc4c(F)cccc43)c2=O)cc1` (centres unmarked) [Example 493], the concentration for a half-maximal effect (EC50) is under 1000 nM.

On to `CC(C)C(C)(C#N)NC(=O)c1ccc(-n2[nH]c3c(nnc4c(F)cccc43)c2=O)cc1` (centres unmarked) [Example 498], for which the 50% effective concentration (EC50) was under 1000 nM.
